Assay results reported in patent US7915282B2, “C2-phenyl-substituted cyclic keto-enols used as pesticides and herbicides” (Bayer Aktiengesellschaft, priority 2000, dated 2011).

What was measured:
Type in all cases: in vivo
[1] = system: green rice leaf hopper (Nephotettix cincticeps); test: Nephotettix test; conditions: active compound concentration of 1000 ppm; after 6 days; rice seedlings dipped
Description: [table] To produce a suitable preparation of active compound, 1 part by weight of active compound is mixed with the stated amounts of solvent and emulsifier, and the concentrate is diluted with emulsifier-containing, water to the desired concentration. Rice seedlings (Oryza sativa) are treated by being dipped into the preparation of active compound of the desired concentrated and are populated with the green rice leaf hopper (Nephotettix cincticeps) while the leaves are still moist. After the desired period of time, the kill in % is determined. 100% means that all leaf hoppers have been killed; 0% means that none of the leaf hoppers have been killed.

Lolium [2] = test: Post-emergence test; conditions: after three weeks
Description: (§1) [table] To produce a suitable preparation of active compound, 1 part by weight of active compound is mixed with the stated amount of solvent, the stated amount of emulsifier is added and the concentrate is diluted with water to the desired concentration. Test plants of a height of 5-15 cm are sprayed with the preparation of active compound such that the particular amounts of active compound desired are applied per unit area. The concentration of the spray liquor is chosen such that the particular amount of active compound desired is applied in 1000 l of water/ha. After three weeks, the degree of damage to the plants is rated in % damage in comparison to the development of the untreated control. The figures denote: [table]

Digitaria [3] = test: Post-emergence test; conditions: after three weeks
Description: as §1

Setaria [4] = test: Post-emergence test; conditions: after three weeks
Description: as §1

Galium = test: Post-emergence test; conditions: 125 g ai/ha, after three weeks
Description: as §1

[5] = system: larvae of the mustard beetle (Phaedon cochleariae); test: Phaedon larvae test; conditions: active compound concentration of 1000 ppm; after 7 days; cabbage leaves dipped
Description: (§2) [table] To produce a suitable preparation of active compound, 1 part by weight of active compound is mixed with the stated amounts of solvent and emulsifier, and the concentrate is diluted with emulsifier-containing water to the desired concentration. Cabbage leaves (Brassica oleracea) are treated by being dipped into the preparation of active compound of the desired concentration and are populated with larvae of the mustard beetle (Phaedon cochleariae) while the leaves are still moist. After the desired period of time, the kill in % is determined. 100% means that all beetle larvae have been killed; 0% means that none of the beetle larvae have been killed.

Avena fatua [6] = test: Pre-emergence test; conditions: after three weeks
Description: (§3) [table] To produce a suitable preparation of active compound, 1 part by weight of active compound is mixed with the stated amount of solvent, the stated amount emulsifier is added and the concentrate is diluted with water to the desired concentration. Seeds of the test plants are sown in normal soil. After about 24 hours, the soil is sprayed with the preparation of active compound such that the particular amounts of active compound desired are applied per unit area. The concentration of the spray liquor is chosen such that the particular amounts of active compound desired are applied in 1000 l of water/ha. After three weeks, the degree of damage to the plants is rated in % damage in comparison to the development of the untreated controls. The figures denote: [table]

Lolium [7] = test: Pre-emergence test; conditions: after three weeks
Description: as §3

Digitaria [8] = test: Pre-emergence test; conditions: 125 g ai/ha, after three weeks
Description: as §3

Alopecurus [9] = test: Pre-emergence test; conditions: after three weeks
Description: as §3

Setaria [10] = test: Pre-emergence test; conditions: after three weeks
Description: as §3

Echinochloa [11] = test: Pre-emergence test; conditions: after three weeks
Description: as §3

[12] = system: greenhouse red spider mite (Tetranychus urticae); test: Tetranychus test (OP-resistant/dip treatment); conditions: active compound concentration of 1000 ppm; after 7 days; infested bean plants dipped
Description: [table] To produce a suitable preparation of active compound, 1 part by weight of active compound is mixed with the stated amounts of solvent and emulsifier, and the concentrate is diluted with emulsifier-containing water to the desired concentration. Bean plants (Phaseolus vulgaris) which are heavily infested by all stages of the greenhouse red spider mite (Tetranychus urticae) are dipped into a preparation of active compound of the desired concentration. After the desired period of time, the effect in % is determined. 100% means that all spider mites have been killed; 0% means that none of the spider mites have been killed.

Sorghum = test: Post-emergence test; conditions: after three weeks
Description: as §1

[13] = system: peach aphids (Myzus persicae); test: Myzus test; conditions: active compound concentration of 1000 ppm; after 6 days; infested cabbage leaves dipped
Description: as §2, with “oleracea) which are heavily infested by the peach aphids (Myzus persicae)” for “oleracea)”, “concentration.” for “concentration and are populated with larvae of the mustard beetle (Phaedon cochleariae) while the leaves are still moist.”, “aphids” for “beetle larvae”

Cotton = test: Post-emergence test; conditions: after three weeks
Description: as §1

Echinochloa [14] = test: Post-emergence test; conditions: 60 g ai/ha, after three weeks
Description: as §1

Sugar beet [15] = test: Post-emergence test; conditions: after three weeks
Description: as §1

Maize = test: Pre-emergence test; conditions: after three weeks
Description: as §3

Bromus = test: Pre-emergence test; conditions: after three weeks
Description: as §3

Wheat [16] = test: Pre-emergence test; conditions: 60 g ai/ha, after three weeks
Description: as §3

Soya bean = test: Pre-emergence test; conditions: after three weeks
Description: as §3

Sugar beet [17] = test: Pre-emergence test; conditions: after three weeks
Description: as §3

[18] = system: caterpillars of the owlet moth (Plutella xylostella); test: Plutella test; conditions: active compound concentration of 1000 ppm; after 7 days; cabbage leaves dipped
Description: as §2, with “caterpillars” for “larvae”, “owlet moth (Plutella xylostella)” for “mustard beetle (Phaedon cochleariae)”, “caterpillars” for “beetle larvae”

Avena fatua [19] = test: Post-emergence test; conditions: after three weeks
Description: as §1

Alopecurus [20] = test: Post-emergence test; conditions: after three weeks
Description: as §1

Veronica = test: Pre-emergence test; conditions: 125 g ai/ha, after three weeks
Description: as §3

Wheat [21] = test: Post-emergence test; conditions: 60 g ai/ha, after three weeks
Description: as §1

white fly Bemisia tabaci = test: Bemisia test; conditions: active compound concentration of 1000 ppm; after 10 days; infested cotton plants dipped
Description: [table] To produce a suitable preparation of active compound, 1 part by weight of active compound is mixed with the stated amounts of solvent and emulsifier, and the concentrate is diluted with emulsifier-containing water to the desired concentrations. Cotton plants (Gossypium hirsutum) which are infested by eggs, larvae and pupae of the white fly Bemisia tabaci are dipped into a preparation of active compound of the desired concentration. After the desired period of time, the kill in % is determined. 100% means that all animals have been killed; 0% means that none of the animals have been killed.

CCc1cc(C)c(C2=C(O)C(C)(C)NC2=O)c(CC)c1 [Example I-1-a-1]
kill in % [1]: 100%

CCc1cc(C)c(C2=C(O)C3(CCC(OC)CC3)NC2=O)c(CC)c1 (stereo not drawn) [Example I-1-a-3]
% damage Lolium (Lolium [2]; 125 g ai/ha): 70% | % damage Digitaria (Digitaria [3]; 125 g ai/ha): 80% | % damage Setaria (Setaria [4]; 125 g ai/ha): 90% | % damage Galium (Galium): 80% | kill in % [5]: 100% | kill in % [1]: 100% | % damage Avena fatua (Avena fatua [6]; 125 g ai/ha): 95% | % damage Lolium (Lolium [7]; 125 g ai/ha): 100% | % damage Digitaria (Digitaria [8]): 100% | % damage Alopecurus (Alopecurus [9]; 125 g ai/ha): 100% | % damage Setaria (Setaria [10]; 125 g ai/ha): 100% | % damage Echinochloa (Echinochloa [11]; 125 g ai/ha): 100% | kill in % [12]: 100%

CCc1cc(CC)c(C2=C(O)C3(CCC(OC)CC3)NC2=O)c(CC)c1 (stereo not drawn) [Example I-1-a-6]
% damage Lolium (Lolium [2]; 125 g ai/ha): 80% | % damage Digitaria (Digitaria [3]; 125 g ai/ha): 95% | % damage Setaria (Setaria [4]; 125 g ai/ha): 95% | % damage Sorghum (Sorghum; 125 g ai/ha): 100% | % damage Avena fatua (Avena fatua [6]; 60 g ai/ha): 80% | % damage Alopecurus (Alopecurus [9]; 60 g ai/ha): 90% | % damage Echinochloa (Echinochloa [11]; 60 g ai/ha): 90% | kill in % [13]: 100%

CCc1cc(C)cc(C)c1C1=C(O)C(C)(C)NC1=O [Example I-1-a-8]
% damage Digitaria (Digitaria [3]; 60 g ai/ha): 95% | % damage Cotton (Cotton; 60 g ai/ha): 0% | % damage Setaria (Setaria [4]; 60 g ai/ha): 100% | % damage Sorghum (Sorghum; 60 g ai/ha): 95% | % damage Echinochloa (Echinochloa [14]): 100% | % damage Sugar beet (Sugar beet [15]; 60 g ai/ha): 10% | kill in % [1]: 100% | % damage Maize (Maize; 60 g ai/ha): 10% | % damage Avena fatua (Avena fatua [6]; 60 g ai/ha): 90% | % damage Bromus (Bromus; 60 g ai/ha): 100% | % damage Lolium (Lolium [7]; 60 g ai/ha): 100% | % damage Alopecurus (Alopecurus [9]; 60 g ai/ha): 100% | % damage Setaria (Setaria [10]; 60 g ai/ha): 100% | % damage Wheat (Wheat [16]): 0% | % damage Soya bean (Soya bean; 60 g ai/ha): 0% | % damage Sugar beet (Sugar beet [17]; 60 g ai/ha): 0% | kill in % [18]: 100%

CCc1cc(C)cc(C)c1C1=C(O)C2(CCC(C)CC2)NC1=O (stereo not drawn) [Example I-1-a-9]
% damage Avena fatua (Avena fatua [19]; 15 g ai/ha): 95% | % damage Digitaria (Digitaria [3]; 15 g ai/ha): 95% | % damage Cotton (Cotton; 15 g ai/ha): 0% | % damage Alopecurus (Alopecurus [20]; 15 g ai/ha): 100% | % damage Setaria (Setaria [4]; 15 g ai/ha): 100% | % damage Sugar beet (Sugar beet [15]; 15 g ai/ha): 10% | kill in % [1]: 100% | % damage Lolium (Lolium [7]; 125 g ai/ha): 100% | % damage Digitaria (Digitaria [8]): 100% | % damage Veronica (Veronica): 90% | % damage Alopecurus (Alopecurus [9]; 125 g ai/ha): 100% | % damage Setaria (Setaria [10]; 125 g ai/ha): 100% | % damage Soya bean (Soya bean; 125 g ai/ha): 0% | % damage Sugar beet (Sugar beet [17]; 125 g ai/ha): 0%

CCc1cc(C)cc(C)c1C1=C(O)C2(CCC(OC)CC2)OC1=O (stereo not drawn) [Example I-2-a-4]
% damage Avena fatua (Avena fatua [19]; 60 g ai/ha): 80% | % damage Lolium (Lolium [2]; 60 g ai/ha): 95% | % damage Cotton (Cotton; 60 g ai/ha): 0% | % damage Alopecurus (Alopecurus [20]; 60 g ai/ha): 95% | % damage Wheat (Wheat [21]): 0% | % damage Sorghum (Sorghum; 60 g ai/ha): 80% | kill in % [1]: 100% | % damage Maize (Maize; 125 g ai/ha): 5% | % damage Avena fatua (Avena fatua [6]; 125 g ai/ha): 80% | % damage Bromus (Bromus; 125 g ai/ha): 70% | % damage Lolium (Lolium [7]; 125 g ai/ha): 100% | % damage Alopecurus (Alopecurus [9]; 125 g ai/ha): 100% | % damage Setaria (Setaria [10]; 125 g ai/ha): 100% | % damage Soya bean (Soya bean; 125 g ai/ha): 0% | % damage Sugar beet (Sugar beet [17]; 125 g ai/ha): 0% | kill in % (white fly Bemisia tabaci): 100% | kill in % [12]: 100% | kill in % [13]: 100%

C=Cc1cc(C)c(C2=C(OC(=O)C(C)(C)C)C3(CCCCC3)OC2=O)c(C)c1 [Example I-2-b-2]
kill in % [12]: 100%
